Source: patent US11234960B2, “Compositions and methods for improving mitochondrial function and treating neurodegenerative diseases and cognitive disorders” (Amazentis SA, priority 2010, dated 2022)

Experiments:
[1] = test system: high fat diet (HFD)-fed C57BL6/J mice; assay: Body weight and body composition (EchoMRI) in high-fat diet fed mice; assay type: in vivo; conditions: for body weight gain: HFD-fed mice vs control HFD-fed mice, PE 140 mkd polyphenols gavage (FIG. 17A); for body weight gain / percentage fat mass (EchoMRI): urolithin A 55 mkd food admix, punicalagin 90 mkd gavage; for percentage of lean mass (EchoMRI) / percentage fat mass (EchoMRI): HFD-fed mice; for percentage of lean mass (EchoMRI): 5 weeks of treatment (FIG. 17C); for percentage fat mass (EchoMRI): 5 weeks of treatment, PE 140 mkd gavage (FIG. 17B)
PC-12 cells = assay: Neurite outgrowth in NGF-differentiated PC-12 cells; assay type: cell-based, rat; conditions: 0.5 μM; for percent of cells showing significant outgrowth (>20 μm), increase vs differentiated cells: 72 h (FIG. 8); for number of processes, increase: 72 h, differentiated PC-12 cells (FIG. 9)
Description: The ellagitannins and their metabolites tested in the assays were synthesized or purchased from suppliers which included Funakoshi, Sigma, and Chemos. Stock solutions were aliquoted and stored at −20° C.
PC-12 cells (ATCC CRL-1721) were cultured at 37° C., 5% CO2 in poly L-lysine-coated culture flasks in complete culture medium (RPMI 1640+10% heat-inactivated horse serum+5% fetal bovine serum).
Cell differentiation was performed in culture flasks 24 h after plating, in complete medium supplemented with 100 ng/mL NGF (2.5 S NGF, Invitrogen). The NGF-supplemented medium was renewed every third day, and differentiation was induced over an 8-day period.
All compounds to be tested were prepared just before the experiment as a 50 mM stock solution in dimethylsulfoxide (DMSO). The final DMSO concentration was 0.1% in the medium of all experimental groups.
For neurite outgrowth measurements, differentiated cells were washed with phosphate-buffered saline (PBS), collected after detachment and replated at a density of 5,000 cells/well (biocoat imaging 96 well plate) in complete medium supplemented with 100 ng/mL NGF, with or without 10 μM SP600125 (negative control), 1 mM dbcAMP (positive control), or tested compound at 5×10^−7 M. In the undifferentiated control group, no NGF was added after replating.
After 72 h in culture, PC-12 cells were washed with PBS and fixed in 1% paraformaldehyde solution for 20 minutes. After 3 washes with PBS, immunofluorescence labeling was performed with Texas Red Maleimide probe, which reacts with thiol groups of cysteine residues of proteins, permitting the visualization of the entire cell morphology, including neurites.
Immunofluorescence analysis was performed in automated confocal microscopy. Images were acquired with a BD pathway 855 system, under X20 objective with 8×8 field montage. Neurite outgrowth was then measured from acquired images with the neurite module of Metamorph® software. Total and mean outgrowth, total and mean number of processes per cell, and total and percentage of cells with extensive outgrowth (defined as outgrowth longer than 20 μm) were analyzed.

HFD-fed C57BL6/J mice = assay: Oral glucose tolerance test in HFD-fed mice; assay type: in vivo; conditions: 10 weeks of treatment (FIG. 24)
Description: (§1) Mice in different treatment groups were administered (i) urolithin A mixed with food (food admix) to reach a dosing of 55 mg/kg body weight/day (mkd); (ii) ellagic acid mixed with food (food admix) to reach a dosing of 75 mkd; (iii) punicalagin (gavage) to reach a dosing of 90 mkd; or (iv) pomegranate extract (PE) (gavage) to reach a dosing of 140 mkd of total polyphenols. A typical pomegranate extract used in these experiments had the following composition: polyphenols, 140 mkd; punicalagin, 13.1 mkd; and ellagic acid, 13.2 mkd. For animals treated by gavage, gavage was performed daily (7 days/week) between 8:00 and 10:00 a.m.; compounds were mixed with saline solution (0.9% NaCl) and provided at a final volume of 5 mL/kg of body weight. Mice in high-fat control groups were fed with the same diet as the experimental animals. Mice in corresponding different control groups were administered either high-fat diet alone or high-fat diet plus daily gavage with vehicle (saline). Another control group of mice were fed standard chow diet alone.
Male C57BL6/J mice were grouped and treated as described in Example 7. In addition, glucose tolerance test (GTT) was performed for HFD-fed mice which developed glucose intolerance. Glucose tolerance test was monitored 10 weeks after the initiation of the treatment by Oral Glucose Tolerance Test (oGTT). Animals were fasted for 12 h (from 8 pm to 8 am) before oGTT. The day of the oGTT, a small drop of blood (<2 μL) was collected from the lateral tail vein and glycemia was monitored using a glucometer (AccuCheck Aviva, Roche Diagnosis). Each animal then received, at time 0, an oral dose of D-glucose at a dosing of 2 g/kg body weight. Glycemia was then monitored at times 15, 30, 45, 60, 90, 120, and 150 min after oral glucose load.

citrate synthase = assay: Citrate synthase activity in C2C12 myotubes; assay type: cell-based; conditions: 48 hr, punicalagin 1 or 10 μM, ellagic acid or urolithin 1, 10 or 50 μM (FIG. 4)
Description: The enzyme citrate synthase catalyzes the reaction between acetyl coenzyme A (acetyl CoA) and oxaloacetic acid to form citric acid. The acetyl CoA contributes 2 carbons to the 4 carbons of oxaloacetate, resulting in citrate with 6 carbons. The hydrolysis of the thioester of acetyl CoA results in the formation of CoA with a thiol group (CoA-SH). The activity of citrate synthase is measured via the reaction between the thiol of CoA-SH with the DTNB in the mixture to form 5-thio-2-nitrobenzoic acid (TNB). This yellow product (TNB) is observed spectrophotometrically by measuring absorbance at 412 nm (Citrate Synthase Assay Kit, Cat Number CS0720, Sigma Aldrich).
C2C12 myoblasts were differentiated into myotubes by serum deprivation for 4 days (Canto et al. (2009) Nature. 458:1056-60). Myotubes were incubated for 48 hr with punicalagin at a final concentration of 1 or 10 μM or with ellagic acid or urolithin at a final concentration of 1, 10 or 50 μM (all dissolved in DMSO, final concentration 0.1%). DMSO was used as a control (final concentration 0.1%). At the end of the treatment, cells were washed 3 times with PBS and assayed for citrate synthase activity according to manufacturer's instructions (Citrate Synthase Assay Kit, Cat Number CS0720, Sigma Aldrich).

[2] = test system: C57BL6/J mice fed standard chow diet; assay: Body composition (EchoMRI) in standard chow diet fed mice; assay type: in vivo; conditions: 2 weeks of treatment, ellagic acid 75 mkd; for percentage of lean mass (EchoMRI): urolithin A 55 mkd food admix (FIG. 18A); for percentage of fat mass (EchoMRI): urolithin A 55 mkd food admix (FIG. 18B)
Text: Male C57BL6/J mice were purchased from Charles River Laboratory (L'Arbresle, France) at the age of 7 weeks and acclimatized to the animal facility for 2 weeks before initiation of experiments. Mice were housed in groups of 5 in standard housing conditions, with a 12 hr light-dark cycle and free access to food and water. Beginning at 9 weeks of age, mice were fed a high-fat diet (HFD) (60% kcal from fat; D12492; Research Diets Inc., New Brunswick, N.J., USA) for fourteen weeks. Body weight was monitored weekly.
as §1
Body composition was monitored by EchoMRI (Echo Medical Systems, Houston, Tex., USA) 5 weeks after the initiation of the treatment for high-fat diet fed mice and 2 weeks after the initiation of the treatment for chow diet fed mice. Animals were placed individually into a plastic cylinder and then introduced into an EchoMRI system for about 2 min for body composition scanning (lean and fat mass).

SMILES | body weight gain [1] | percentage of lean mass (EchoMRI) [1] | percentage fat mass (EchoMRI) [1] | percent of cells showing significant outgrowth (>20 μm), increase vs differentiated cells (PC-12 cells) [%] | number of processes, increase (PC-12 cells) [%] | glucose tolerance (oGTT, glycemia after 2 g/kg D-glucose) (HFD-fed C57BL6/J mice) | citrate synthase activity (citrate synthase) | percentage of lean mass (EchoMRI) [2] | percentage of fat mass (EchoMRI) [2]
O=C1O[C@H]2[C@@H]3OC(=O)c4cc(O)c(O)c(O)c4-c4c(O)c(O)c5oc(=O)c6c(c(O)c(O)c7oc(=O)c4c5c76)-c4c(cc(O)c(O)c4O)C(=O)OC[C@H]3OC(O)[C@@H]2OC(=O)c2cc(O)c(O)c(O)c2-c2c1cc(O)c(O)c2O (mixture of isomers) [punicalagin, 2,3 hexahydroxydiphenoyl-4,6-gallagylglucose] | strong reduction of body weight gain | statistically significant increase in the percentage of lean mass | significantly reduced | > 26 | 26.3 | improved glucose tolerance | increase citrate synthase activity in a dose-dependent manner | – | –
O=c1oc2c(O)c(O)cc3c(=O)oc4c(O)c(O)cc1c4c23 [ellagic acid] | – | – | – | – | – | improved glucose tolerance | increase citrate synthase activity in a dose-dependent manner | statistically significant increase in the percentage of lean mass | reduction in fat mass
O=c1oc2cc(O)ccc2c2ccc(O)cc12 [urolithin A, 3,8-Dihydroxydibenzo-α-pyrone] | strong reduction of body weight gain | statistically significant increase in the percentage of lean mass | significantly reduced | 26 | 15.7 | improved glucose tolerance | increase citrate synthase activity in a dose-dependent manner | statistically significant increase in the percentage of lean mass | reduction in fat mass
